This test concerns the target T1, FXR ligand binding domain (GST-FXR LBD fusion protein, human FXR aa 193-473) (Homo sapiens, UniProt Q96RI1).
T1 construct: fused on or other part: Glutathione-S-transferase (GST) fused N-terminally to the FXR LBD, used to capture the protein on glutathione SPA beads
T1 sequence (Q96RI1 211-486 limits assumed): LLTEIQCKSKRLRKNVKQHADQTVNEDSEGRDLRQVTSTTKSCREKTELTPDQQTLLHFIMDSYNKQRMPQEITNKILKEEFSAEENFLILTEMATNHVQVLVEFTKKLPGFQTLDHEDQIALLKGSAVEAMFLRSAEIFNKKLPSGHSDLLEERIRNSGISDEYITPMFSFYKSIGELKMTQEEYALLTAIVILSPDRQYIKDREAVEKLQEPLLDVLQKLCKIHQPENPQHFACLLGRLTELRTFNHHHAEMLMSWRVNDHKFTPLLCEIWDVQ
Kind of test: Radioligand binding assay (scintillation proximity, radioligand displacement). As to conditions: 40 nM GST-FXR LBD on SPA beads, test compound 6×10^−9 M to 2.5×10^−5 M, read-out: h-IC50 Binding. The method, boiled down: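 40 nM GST-FXR LBD, E. coli-expressed, bound to glutathione yttrium silicate SPA beads in 50 mM Hepes pH 7.4, 10 mM NaCl, 5 mM MgCl2, 0.01% CHAPS. Test compounds displace radioligand (e.g. 20 nM benzimidazolyl-acetamide ligand); bound ligand measured by scintillation proximity counting.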
Background: Scintillation proximity formats need no separation of bound from free tracer.
With `Cc1cc(-c2nnn[nH]2)cc(C)c1OCC(C1CCCCC1)n1c(-c2ccc(Cl)cc2)nc2ccccc21` (stereo not shown) [Example 111, 2-(4-Chloro-phenyl)-1-{1-cyclohexyl-2-[2,6-dimethyl-4-(1H-tetrazol-5-yl)-phenoxy]-ethyl}-1H-benzoimidazole], the 50% inhibitory concentration (IC50) is 20 nM.
Then `O=C(O)c1cnc(OCC(C2CCCCC2)n2c(-c3ccc(Cl)cc3)nc3cc(F)c(F)cc32)c(Br)c1` (stereo not shown) [Example 114, 5-Bromo-6-{2-[2-(4-chloro-phenyl)-5,6-difluoro-benzoimidazol-1-yl]-2-cyclohexyl-ethoxy}-nicotinic acid], with 60 nM; and `O=C(O)C1(Oc2ccc(OCC(C3CCCCC3)n3c(-c4ccc(Cl)cc4)nc4cc(F)c(F)cc43)cc2)CCC1` (stereo not shown) [Example 117, 1-(4-{2-[2-(4-Chloro-phenyl)-5,6-difluoro-benzoimidazol-1-yl]-2-cyclohexyl-ethoxy}-phenoxy)-cyclobutanecarboxylic acid], with 40 nM; and `O=C(O)C1(Oc2ccc(OCC(C3CCCCC3)n3c(-c4ccc(Cl)cc4)nc4cc(F)c(F)cc43)cc2)CC1` (stereo not shown) [Example 120, 1-(4-{2-[2-(4-Chloro-phenyl)-5,6-difluoro-benzoimidazol-1-yl]-2-cyclohexyl-ethoxy}-phenoxy)-cyclopropanecarboxylic acid], with 30 nM.
Consider `Cc1cc(Cl)ccc1-c1nc2cc(F)c(F)cc2n1C(COc1ccc(C(=O)O)cn1)C1CCCCC1` (stereo not shown) [Example 123, 6-{2-[2-(4-Chloro-2-methyl-phenyl)-5,6-difluoro-benzoimidazol-1-yl]-2-cyclohexyl-ethoxy}-nicotinic acid], for which the IC50 stood at 30 nM.
In the case of `Cc1cc(Cl)ccc1-c1nc2cc(F)c(F)cc2n1C(COc1c(F)cc(C(=O)O)cc1F)C1CCCCC1` (stereo not shown) [Example 124, 4-{2-[2-(4-Chloro-2-methyl-phenyl)-5,6-difluoro-benzoimidazol-1-yl]-2-cyclohexyl-ethoxy}-3,5-difluoro-benzoic acid], the IC50 was found to be 3 nM.
`Fc1cc2nc(-c3ccc(Cl)cc3)n(C(COc3c(F)cc(-c4nnn[nH]4)cc3F)C3CCCCC3)c2cc1F` (stereo not shown) [Example 127, 2-(4-Chloro-phenyl)-1-{1-cyclohexyl-2-[2,6-difluoro-4-(1H-tetrazol-5-yl)-phenoxy]-ethyl}-5,6-difluoro-1H-benzoimidazole]: the IC50 is 1 nM.
As for `Fc1cc(-c2nnn[nH]2)cc(F)c1OCC(C1CCCCC1)n1c(-c2ccc(Cl)cc2)nc2ccccc21` (stereo not shown) [Example 128, 2-(4-Chloro-phenyl)-1-{1-cyclohexyl-2-[2,6-difluoro-4-(1H-tetrazol-5-yl)-phenoxy]-ethyl}-1H-benzoimidazole], the IC50 amounted to 20 nM.
The same measure for `COc1ccc(-c2nc3cc(F)c(F)cc3n2C(COc2c(F)cc(-c3nnn[nH]3)cc2F)C2CCCCC2)c(OC)n1` (stereo not shown) [Example 129, 1-{1-Cyclohexyl-2-[2,6-difluoro-4-(1H-tetrazol-5-yl)-phenoxy]-ethyl}-2-(2,6-dimethoxy-pyridin-3-yl)-5,6-difluoro-1H-benzoimidazole]: 20 nM; for `O=C(O)c1ccc(OCC(C2CCCCCC2)n2c(-c3ccc(Cl)cc3)nc3cc(F)c(F)cc32)nc1` (stereo not shown) [Example 130, 6-{2-[2-(4-Chloro-phenyl)-5,6-difluoro-benzoimidazol-1-yl]-2-cycloheptyl-ethoxy}-nicotinic acid]: 300 nM.
The same measure for `O=C(O)c1cc(F)c(OCC(C2CCCCCC2)n2c(-c3ccc(Cl)cc3)nc3cc(F)c(F)cc32)c(F)c1` (stereo not shown) [Example 131, 4-{2-[2-(4-Chloro-phenyl)-5,6-difluoro-benzoimidazol-1-yl]-2-cycloheptyl-ethoxy}-3,5-difluoro-benzoic acid]: 20 nM.
The same measure for `Cc1cc(-c2nnn[nH]2)cc(C)c1OCC(C1CCC(F)(F)CC1)n1c(-c2ccc(Cl)cc2)nc2cc(F)c(F)cc21` (stereo not shown) [Example 134, 2-(4-Chloro-phenyl)-1-{1-(4,4-difluoro-cyclohexyl)-2-[2,6-dimethyl-4-(1H-tetrazol-5-yl)-phenoxy]-ethyl}-5,6-difluoro-1H-benzoimidazole]: 10 nM; for `Cc1cc(-c2nnn[nH]2)cc(C)c1OCC(C1CCCC1)n1c(-c2ccc(Cl)cc2)nc2cc(F)c(F)cc21` (stereo not shown) [Example 135, 2-(4-Chloro-phenyl)-1-{1-cyclopentyl-2-[2,6-dimethyl-4-(1H-tetrazol-5-yl)-phenoxy]-ethyl}-5,6-difluoro-1H-benzoimidazole]: 20 nM.
Consider `Cc1cc(-c2nnn[nH]2)cc(C)c1OCC(C1CC1)n1c(-c2ccc(Cl)cc2)nc2cc(F)c(F)cc21` (stereo not shown) [Example 136, 2-(4-Chloro-phenyl)-1-{1-cyclopropyl-2-[2,6-dimethyl-4-(1H-tetrazol-5-yl)-phenoxy]-ethyl}-5,6-difluoro-1H-benzoimidazole], for which the IC50 worked out at 100 nM.
Then `Fc1cc2nc(-c3ccc(Cl)cc3)n(C(CNc3ccc(-c4nnn[nH]4)cc3)C3CCCCC3)c2cc1F` (stereo not shown) [Example 139, {2-[2-(4-Chloro-phenyl)-5,6-difluoro-benzoimidazol-1-yl]-2-cyclohexyl-ethyl}-[4-(1H-tetrazol-5-yl)-phenyl]-amine], with 3 nM.
On to `O=C(O)c1ccc(SCC(C2CCCCC2)n2c(-c3ccc(Cl)cc3)nc3cc(F)c(F)cc32)cc1` (stereo not shown) [Example 140, 4-{2-[2-(4-Chloro-phenyl)-5,6-difluoro-benzoimidazol-1-yl]-2-cyclohexyl-ethylsulfanyl}-benzoic acid], for which the IC50 was determined as 70 nM.
Then `O=C(O)c1ccc(S(=O)(=O)CC(C2CCCCC2)n2c(-c3ccc(Cl)cc3)nc3cc(F)c(F)cc32)cc1` (stereo not shown) [Example 141, 4-{2-[2-(4-Chloro-phenyl)-5,6-difluoro-benzoimidazol-1-yl]-2-cyclohexyl-ethanesulfonyl}-benzoic acid], with 8200 nM; and `O=C(O)c1ccc(CCC(C2CCCCC2)n2c(-c3ccccc3)nc3cc(F)c(F)cc32)cc1` (stereo not shown) [Example 142, 4-[3-Cyclohexyl-3-(5,6-difluoro-2-phenyl-benzoimidazol-1-yl)-propyl]-benzoic acid], with 5 nM; and `COc1ccc(-c2nc3cc(F)c(F)cc3n2C(CCc2ccc(C(=O)O)cc2)C2CCCCC2)c(OC)n1` (stereo not shown) [Example 145, 4-{3-Cyclohexyl-3-[2-(2,6-dimethoxy-pyridin-3-yl)-5,6-difluoro-benzoimidazol-1-yl]-propyl}-benzoic acid], with 0.3 nM.

By IC50 is commonly meant the concentration that inhibits the measured activity by half.

The values are drawn from US8088930B2, “Benzimidazole derivatives” (Hoffmann-La Roche Inc., priority 2008, dated 2012).
